Results from patent US11077167B2, “Agent for promoting skeletal muscle injury repair” (Osaka University, priority 2017, dated 2021).

What was measured:
[1] = tested on: Human skeletal muscle satellite cells (HskMSCs); test: Cell migratory capacity (cell-denuded area); assay type: cell-based; details: SV peptide 20 ng/mL
Excerpt: Human skeletal muscle satellite cells (HskMSCs) were purchased from ScienCell Research Laboratories and used. The medium used for HskMSC culture was the supplier's recommended medium (Skeletal Muscle Cell Medium containing 5% FBS, Skeletal Muscle Cell Growth Supplement, and penicillin/streptomycin solution).
(§1) Human skeletal muscle satellite cells and human skeletal muscle myoblasts were separately cultured on 60-mm (diameter) dishes (Iwaki) to 100% confluency. From each dish, a 2-mm-wide strip of cells were removed, and the medium was replaced with a medium containing the SV peptide (20 ng/mL, SV group), the random SV (20 ng/mL, random SV group), or PBS (PBS group). Thereafter, culture was continued. Images were taken with a digital camera mounted on a phase-contrast microscope every 12 hours. The cell-denuded area was measured using the image-analysis software ImageJ (NIH, USA). The cell migration percentage was determined by calculating the percentage of reduction in the cell-denuded area relative to the value immediately after cell removal.

[2] = Patent Literature 3; cited from earlier work
[3] = tested on: muscle injury model rats (incised masseter muscles on both sides); test: Histological staining of masseter muscles at postoperative week 1, Example 1; assay type: in vivo, Jcl:SD rats; details: P<0.05, t-test
Procedure: (§2) Incisions were made in masseter muscles on both sides in Jcl:SD rats (10 weeks old). Immediately after muscle incision, 1 mL each of the SV peptide (20 ng/mL) was intramuscularly administered into several sites surrounding the cut surfaces. The incision on each side was made along a straight line connecting the lateral angle of the eye and the mandibular angle, extending in depth from the fascia on the skin side to the lateral periosteum on the mandibular ramus. The cut surfaces were subjected to electrocoagulation with an electric scalpel for the arrest of bleeding (see FIG. 1).
This experiment was performed on rats subjected to incision of masseter muscles on both sides and subsequent administration of the SV peptide into the incised left masseter muscle without administration into the incised right masseter muscle (control). Each rat was euthanized at postoperative week 1, and the masseter muscles on both sides were excised. Histological sections were prepared by the usual method and subjected to various types of staining. The number of immature muscle fibers with central nuclei, which were muscle fibers involved in muscle repair, and the number of blood vessels were counted on HE-staining specimens. The masseter muscle was divided into upper and lower halves in the coronal plane, and 2 slices each of the upper and lower halves were used for counting. Counting was performed in 5 fields of view in each slice. The area of granulation tissue formed on the cut surfaces was measured on sirius red-staining specimens (type I and type III collagens were stained) using an image-analysis software. The sections were immunostained for myogenin, a marker for myotube cells, and the number of myogenin-positive cells was counted using an image-analysis software.

[4] = tested on: muscle injury model rats (incised masseter muscles on both sides); test: Electrophysiological experiment (masseter EMG, Lissajous pattern), Example 1; assay type: in vivo, Jcl:SD rats; details: 1 week postoperatively
Procedure: as §2
This experiment was performed on rats subjected to incision of masseter muscles on both sides and subsequent administration of the SV peptide into the incised left masseter muscle and of PBS into the incised right masseter muscle. Bipolar needle electrodes were retained in the masseter muscles on both sides, and myogenic potential signals received through connectors fixed to both sides of the parietal bone were monitored. Electromyographic (EMG) data were recorded preoperatively and 1 week postoperatively. Generally, in the electromyogram of masseter muscles recorded during food ingestion, the cutting phase and the grinding phase in the masticatory movement show different waveforms. […]
Lissajous pattern (FIG. 3). […] Based on this, the chewing side preference was determined.

[5] = tested on: muscle injury model rats (incised masseter muscles on both sides); test: CT image analysis at postoperative week 8; assay type: in vivo, Jcl:SD rats
Procedure: as §2, with “old) under anesthesia in the same manner as in Example 1.” for “old).”, “ng/mL) or 1 mL each of PBS” for “ng/mL)”, “1). […]” for “1).”
Images were taken at postoperative week 8 using a micro CT for laboratory animals (Rigaku, tube voltage: 90 kV, tube current: 160 μA, voxel size: 118 μm). […] On the image at the level of the occlusal plane including the masseter muscle incision site, the muscle cross-sectional area (CSA), the mean CT value, and the % CSA (the percentage of the area having a muscle CT value in the area of interest) were measured and compared.

[6] = tested on: Human skeletal muscle myoblasts (HSMMs); test: Cell migratory capacity (cell-denuded area); assay type: cell-based; details: SV peptide 20 ng/mL
Procedure: Human skeletal muscle myoblasts (HSMMs) were purchased from Lonza and used. The medium used for HSMM culture was the supplier's recommended medium (Skeletal Muscle Growth Media-2 supplemented with SingleQuots Kit).
as §1

SVVYGLR [SV peptide]
cell migratory capacity [1]: did not affect | cardiac function [2]: improves cardiac function | number of muscle fibers with central nuclei ([3]; HE staining, SV peptide side vs control side): significantly larger on the SV peptide side than that on the control side | number of blood vessels per field of view ([3]; HE staining, SV peptide side vs non-administration control side): significantly larger on the SV peptide side than that on the control side | number of myogenin-positive nuclei per field of view ([3]; myogenin immunostaining, SV peptide side vs control side): significantly larger on the SV peptide side than that on the control side | area of granulation tissue formed on cut surfaces ([3]; sirius red staining, SV peptide side vs control side): significantly smaller on the SV peptide side than that on the control side | chewing side preference ([4]; SV peptide into left, PBS into right masseter muscle): left-side chewing preference was seen postoperatively | mean myogenic potential of the left masseter muscle during left-side chewing ([4]; left = SV peptide side, right = PBS side): reduced postoperatively, but the degree of the reduction was smaller than that in the mean myogenic potential of the right masseter muscle | muscle cross-sectional area (CSA) ([5]; CT image at occlusal plane level, SV group vs PBS group): significantly greater CSA in the area including the muscle incision site than that in the corresponding area in the PBS group | % CSA (percentage of the area having a muscle CT value in the area of interest) ([5]; SV side vs control side within SV group): significantly higher % CSA on the left side with SV administration (SV side) than that on the right side without administration (control side) | cell migratory capacity (cell migration percentage) ([6]; 36 and 48 hours after cell removal): significantly different from that in the PBS group or the random SV group | cell migratory capacity (cell migration percentage) ([6]; 24 hours after cell removal and thereafter): higher than that in the PBS group or the random SV group
